One experiment addresses T1, uterine OT receptors (Rattus norvegicus, UniProt P70536).
T1 construct: from tissue; host or cells: uterus of DES-treated rats, crude membranes
T1 sequence (P70536 1-388): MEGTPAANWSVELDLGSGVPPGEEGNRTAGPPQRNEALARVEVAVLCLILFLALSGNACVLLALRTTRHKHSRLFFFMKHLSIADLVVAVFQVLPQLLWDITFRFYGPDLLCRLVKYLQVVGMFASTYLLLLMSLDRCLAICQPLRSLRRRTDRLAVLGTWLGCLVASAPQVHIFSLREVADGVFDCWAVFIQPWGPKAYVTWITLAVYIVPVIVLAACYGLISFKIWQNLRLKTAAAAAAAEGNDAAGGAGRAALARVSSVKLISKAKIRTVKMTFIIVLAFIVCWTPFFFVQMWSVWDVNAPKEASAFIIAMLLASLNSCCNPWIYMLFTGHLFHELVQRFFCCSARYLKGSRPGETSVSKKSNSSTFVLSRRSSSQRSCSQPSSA
Briefly: [^3 H]OT binding to uterine OT receptors, crude membrane preparation of uteri from DES-treated rats. Particulars: for inhibition at 0.1 µM: 1 h, @ 100 (nM), read-out: [^3 H]OT: percent inhibition of radioligand at the given concentration. As for the experimental part:
Competition studies were conducted at equilibrium (60 minutes; 22° C.) using 1 nM [^3 H]OT in the following assay buffer: 50 mM Tris-HCl, 5 mM MgCl2, and 0.1% BSA, pH 7.4.

The target of the next experiment is T2, AVP-V1 sites (Rattus norvegicus, UniProt P30560).
T2 construct: crude membrane preparation of male rat liver (AVP-V1 sites); from tissue; host or cells: male rat liver, crude membranes
Briefly: [^3 H]AVP binding to crude membrane preparation of male rat liver (AVP-V1 sites). As for the experimental part: (§1) Nonspecific binding (5-10% of the total binding) was determined using 10 μM unlabeled AVP, and the binding reaction was terminated by filtration as described above for the [^3 H]OT binding assay.

For the next experiment, the target named is T3, AVP-V2 sites (Rattus norvegicus, UniProt Q00788).
T3 construct: male rat liver (AVP-V1 sites) or kidney medulla (AVP-V2 sites); from tissue; host or cells: male rat kidney medulla, crude membranes
The experiment can be described thus: [^3 H]AVP binding to crude membrane preparation of male rat kidney medulla (AVP-V2 sites). As for the experimental part: as §1

[1] abbreviates: rat uterus membranes, 1 nM [^3 H]OT, read-out: Receptor Binding Results IC50 (nM) [^3 H]OT.
Setting [2] is: read-out: Receptor Binding Results IC50 (nM) [^3 H]-AVP-V1.
Setting [3] is: read-out: Receptor Binding Results IC50 (nM) [^3 H]-AVP-V2.
Where [4] appears, read: Receptor Binding Results IC50 (nM) [^3 H]-AVP-V1.
Where [5] appears, read: rat kidney medulla membranes, 2 nM [^3 H]AVP, read-out: Receptor Binding Results IC50 (nM) [^3 H]-AVP-V2.

Where two headings read alike, the source gives them in different places. Numbered stars: 1 amine (or outer) side, 2 acyl side, 3 side chain; on linkers, the order of the positions; unused ones are H or OH. Square brackets hold non-standard residues; d marks the D form. Peptide text beside a SMILES is read from it. * marks the point of attachment. dPip(4-aza,4-Cbz) = O=C(O)[C@H]1CN(C(=O)OCc2ccccc2)CCN1; NH(2-(imidazol-4-yl)ethyl) = c1ncc(CCN*)[nH]1; dPhe(4-NH2) = Nc1ccc(C[C@@H](N)C(=O)O)cc1; d1Nal = N[C@H](Cc1cccc2ccccc12)C(=O)O; dNMehPhe = CN[C@H](CCc1ccccc1)C(=O)O; dNMeY = CN[C@H](Cc1ccc(O)cc1)C(=O)O; X1 = O=C([C@H]1C=CCCN1[*:1])[*:2]; NMeI = CC[C@H](C)[C@H](NC)C(=O)O; dNMeF = CN[C@H](Cc1ccccc1)C(=O)O; hPhe = N[C@@H](CCc1ccccc1)C(=O)O; Pip = O=C(O)[C@@H]1CCCCN1; dPip = O=C(O)[C@H]1CCCCN1; Orn = NCCC[C@H](N)C(=O)O; Cbz = O=C(OCc1ccccc1)*; Dap = NC[C@H](N)C(=O)O; Boc = CC(C)(C)OC(=O)*; Bn = c1ccc(C*)cc1

T2 sequence (P30560 whole entry): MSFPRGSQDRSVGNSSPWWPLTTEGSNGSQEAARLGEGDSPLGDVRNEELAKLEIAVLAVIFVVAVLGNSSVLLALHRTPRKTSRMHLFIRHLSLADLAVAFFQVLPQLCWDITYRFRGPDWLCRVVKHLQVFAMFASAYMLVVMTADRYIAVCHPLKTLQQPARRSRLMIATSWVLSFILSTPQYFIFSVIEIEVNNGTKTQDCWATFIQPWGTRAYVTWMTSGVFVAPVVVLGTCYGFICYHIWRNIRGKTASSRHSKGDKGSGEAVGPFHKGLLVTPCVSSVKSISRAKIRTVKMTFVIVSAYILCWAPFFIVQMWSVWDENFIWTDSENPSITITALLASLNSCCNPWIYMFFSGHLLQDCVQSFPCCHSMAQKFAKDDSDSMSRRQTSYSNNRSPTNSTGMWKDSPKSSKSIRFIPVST
T3 sequence (Q00788 whole entry): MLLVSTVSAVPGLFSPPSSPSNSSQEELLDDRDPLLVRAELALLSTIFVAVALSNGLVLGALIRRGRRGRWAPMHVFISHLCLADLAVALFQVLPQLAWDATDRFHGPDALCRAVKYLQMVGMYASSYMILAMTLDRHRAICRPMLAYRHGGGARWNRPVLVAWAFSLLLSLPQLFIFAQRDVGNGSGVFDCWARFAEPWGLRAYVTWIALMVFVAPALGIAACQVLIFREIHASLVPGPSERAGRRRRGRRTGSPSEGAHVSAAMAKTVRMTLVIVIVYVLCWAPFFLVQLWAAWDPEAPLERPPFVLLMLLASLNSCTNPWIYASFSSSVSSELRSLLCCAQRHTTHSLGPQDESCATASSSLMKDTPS

In the case of `CC[C@H](C)[C@@H]1NC(=O)[C@@H](Cc2ccccc2)NC(=O)[C@@H]2CCCN2C(=O)[C@@H](Cc2c[nH]c3ccccc23)NC(=O)[C@@H]2CCCCN2C(=O)[C@H]2CCCCN2C1=O` [Example 25, Cyclo[D-phenylalanyl-L-isoleucyl-D-pipecolyl-L-pipecolyl-D-trytophanyl-L-prolyl]] (cyclo(I[dPip][Pip][dW]P[dF])), the values for the IC50 at uterine OT receptors (setting [1]), at AVP-V1 sites (setting [2]) and at AVP-V2 sites (setting [3]) were 120 nM, 3000 nM and 3900 nM, respectively.
Regarding `CC[C@H](C)[C@@H]1NC(=O)[C@@H](Cc2ccccc2)NC(=O)[C@@H]2CCCN2C(=O)[C@@H](Cc2ccc(N)cc2)NC(=O)[C@@H]2CCCCN2C(=O)[C@H]2CCCCN2C1=O` [Example 48, Cyclo[D-phenylalanyl-L-isoleucyl-D-pipecolyl-L-pipecolyl-D-(p-amino)phenylalanyl-L-prolyl]] (cyclo(I[dPip][Pip][dPhe(4-NH2)]P[dF])), the figures for the IC50 on uterine OT receptors (setting [1]), on AVP-V1 sites (setting [4]) and on AVP-V2 sites (setting [5]) were 250 nM, 10000 nM and more than 10000 nM, respectively.
For `CC[C@H](C)[C@@H]1NC(=O)[C@@H](Cc2cccc3ccccc23)NC(=O)[C@@H]2CCCN2C(=O)[C@@H](Cc2ccccc2)N(C)C(=O)[C@H](CCCCNC(=O)OC(C)(C)C)NC(=O)[C@H]2CCCCN2C1=O` [Example 139, C-[D-1-Napthylalanyl-L-isoleucyl-D-pipecolyl-L-(N-t-butyloxycarbonyl)lysyl-D-(N-methyl)phenylalanyl-L-prolyl]] (cyclo(I[dPip]K(Boc)[dNMeF]P[d1Nal])), the inhibition at 0.1 µM at uterine OT receptors was 24%. Moreover, the 50% inhibitory concentration (IC50) at AVP-V1 sites (setting [2]) and at AVP-V2 sites (setting [3]) was 8000 nM each time.
Consider `CC[C@H](C)[C@@H]1NC(=O)[C@@H](Cc2c[nH]c3ccccc23)NC(=O)[C@@H]2CCCN2C(=O)[C@H](Cc2c[nH]cn2)NC(=O)[C@H](CCCNC(=O)OCc2ccccc2)NC(=O)[C@H]2CCCN2C1=O` [Example 95, c-[D-Tryptophanyl-L-isoleucinyl-D-prolyl-L-ornithinyl(Cbz)-D-histidyl-L-prolyl]] (cyclo([dW]I[dP][Orn](Cbz)HP)), for which, at uterine OT receptors, the inhibition at 0.1 µM turned out to be 36%. For the same compound, the IC50 at AVP-V1 sites (setting [4]) and at AVP-V2 sites (setting [5]) was more than 10000 nM each time.
With `CC[C@H](C)[C@@H]1NC(=O)[C@@H](Cc2c[nH]c3ccccc23)NC(=O)[C@@H]2CCCN2C(=O)[C@@H](Cc2ccccc2)N(C)C(=O)[C@H](CCCCN)NC(=O)[C@H]2CCCCN2C1=O` [Example 132, c-[D-Tryptophanyl-L-isoleucyl-D-pipecolyl-L-lysyl-D-(N-methyl)phenylalanyl-L-prolyl]] (cyclo(I[dPip]K[dNMeF]P[dW])), the values for the IC50 on uterine OT receptors (setting [1]), on AVP-V1 sites (setting [4]) and at AVP-V2 sites (setting [5]) were 65 nM, more than 10000 nM and 10000 nM, respectively.
Take `CC[C@H](C)[C@@H]1NC(=O)[C@@H](Cc2ccccc2)NC(=O)[C@@H]2CCCN2C(=O)[C@@H](Cc2ccc(OCc3ccccc3)cc2)N(C)C(=O)[C@@H]2CCCCN2C(=O)[C@H]2CCCCN2C1=O` [Example 28, Cyclo[D-phenylalanyl-L-isoleucyl-D-pipecolyl-L-pipecolyl-D-(N^α methyl-O-Benzyl)-tyrosyl-L-prolyl]] (cyclo(I[dPip][Pip][dNMeY](Bn)P[dF])): at uterine OT receptors, the inhibition at 0.1 µM is 28%. Also, the IC50 on AVP-V1 sites (setting [4]) is more than 10000 nM; on AVP-V2 sites (setting [5]), 10000 nM.
With `CN1C(=O)[C@@H]2CCCCN2C(=O)[C@H]2CCCCN2C(=O)[C@H](CCc2ccccc2)NC(=O)[C@@H](Cc2ccccc2)NC(=O)[C@@H]2CCCN2C(=O)[C@H]1Cc1ccccc1` [Example 135, c-[D-Phenylalanyl-L-homophenylalanyl-D-pipecolyl-L-pipecolyl-D-(N-methyl)phenylalanyl-L-prolyl]] (cyclo(P[dF][hPhe][dPip][Pip][dNMeF])), the IC50 at uterine OT receptors (setting [1]) came out at 3400 nM; at AVP-V1 sites (setting [2]), 8800 nM; at AVP-V2 sites (setting [3]) it was 5000 nM.
Turning to `CC[C@H](C)[C@@H]1NC(=O)[C@@H](Cc2ccccc2)NC(=O)[C@@H]2CCCN2C(=O)[C@@H](Cc2ccccc2)N(C)C(=O)[C@H](CC(=O)NCCc2c[nH]cn2)NC(=O)[C@H]2CCCCN2C1=O` [Example 120, c-[D-Phenylalanyl-L-isoleucyl-D-pipecolyl-N^β -(imidazolylethyl)-L-asparagyl-N-methyl-D-phenylalanyl-L-prolyl]] (cyclo(D(NH(2-(imidazol-4-yl)ethyl))[dNMeF]P[dF]I[dPip])), the figures for the IC50 on uterine OT receptors (setting [1]), at AVP-V1 sites (setting [4]) and at AVP-V2 sites (setting [5]) were 120 nM, 10000 nM and 10000 nM, respectively.
`CC[C@H](C)[C@@H]1NC(=O)[C@@H](Cc2ccccc2)NC(=O)[C@@H]2CCCN2C(=O)[C@@H](Cc2ccccc2)N(C)C(=O)[C@H]2C=CCCN2C(=O)[C@H]2CCCCN2C1=O` [Example 22, Cyclo[D-Phenylalanyl-L-isoleucyl-D-pipecolyl-D-(3,4-Dehydro)-pipecolyl-D-(N^α methyl)phenylalanyl-L-Prolyl]] (cyclo(I[dPip][X1][dNMeF]P[dF])): the values for the IC50 at uterine OT receptors (setting [1]), on AVP-V1 sites (setting [4]) and at AVP-V2 sites (setting [5]) were 2400 nM, more than 10000 nM and more than 10000 nM, respectively.
Take `CC(C)C[C@@H]1NC(=O)[C@@H](Cc2c[nH]c3ccccc23)NC(=O)[C@@H]2CCCN2C(=O)[C@@H](Cc2c[nH]cn2)NC(=O)[C@@H]2CCCCN2C(=O)[C@H]2CCCCN2C1=O` [Example 21, Cyclo[D-tryptophanyl-L-leucyl-D-pipecolyl-L-pipecolyl-D-histidyl-L-prolyl]] (cyclo(L[dPip][Pip][dH]P[dW])): the half-inhibitory concentration (IC50) at uterine OT receptors (Receptor Binding Results IC50 (nM) [^3 H]OT) is 190 nM; at AVP-V1 sites (setting [4]), 10000 nM; at AVP-V2 sites (Receptor Binding Results IC50 (nM) [^3 H]-AVP-V2), more than 10000 nM.
With “C-[D,L-3-(3-(5-Methoxy)indolyl)alanyl-L-isoleucyl-D-pipecolyl-L-pipecolyl-D-histidyl-L-prolyl] [Example 156]”, the IC50 at uterine OT receptors (setting [1]) was 1100 nM; on AVP-V1 sites (rat liver membranes, 1 nM [^3 H]AVP, read-out: Receptor Binding Results IC50 (nM) [^3 H]-AVP-V1) it was more than 30000 nM; on AVP-V2 sites (setting [5]) it was more than 30000 nM.
Take `CC[C@H](C)[C@@H]1NC(=O)[C@@H](Cc2ccccc2)NC(=O)[C@@H]2CCCN2C(=O)[C@@H](Cc2ccccc2)N(C)C(=O)[C@@H]2CCCCN2C(=O)[C@H]2C=CCCN2C1=O` [Example 24, Cyclo[D-phenylanyl-L-isoleucyl-D-(3,4-dehydro)-pipecolyl-L-pipecolyl-D-(N^α methyl)phenyalanyl-L-prolyl]] (cyclo(I[X1][Pip][dNMeF]P[dF])): the IC50 at uterine OT receptors (setting [1]) was 640 nM; at AVP-V1 sites (setting [4]), more than 10000 nM; at AVP-V2 sites (setting [5]) it was 10000 nM.
The corresponding values for `CC[C@H](C)[C@@H]1NC(=O)[C@@H](Cc2ccccc2)NC(=O)[C@@H]2CCCN2C(=O)[C@@H](Cc2ccccc2)N(C)C(=O)[C@H](CN)NC(=O)[C@H]2CCCCN2C1=O` [Example 121, c-[D-Phenylalanyl-L-isoleucyl-D-pipecolyl-L-2,3-diaminopropionyl-N-methyl-D-phenylalanyl-L-prolyl]] (cyclo([Dap][dNMeF]P[dF]I[dPip])) are 270 nM, 10000 nM and 10000 nM.
Turning to `CC[C@H](C)[C@H]1C(=O)N2CCCC[C@@H]2C(=O)N2CCCC[C@H]2C(=O)N(C)[C@H](Cc2ccccc2)C(=O)N2CCC[C@H]2C(=O)N(C)[C@H](CCc2ccccc2)C(=O)N1C` [Example 166] (cyclo([NMeI][dPip][Pip][dNMeF]P[dNMehPhe])), the IC50 at uterine OT receptors (setting [1]) was 23000 nM; at AVP-V1 sites (setting [2]) it was more than 3000 nM; at AVP-V2 sites (setting [3]), more than 3000 nM.
For `CC[C@H](C)[C@@H]1NC(=O)[C@@H](Cc2ccccc2)NC(=O)[C@@H]2CCCN2C(=O)[C@@H](Cc2ccccc2)N(C)C(=O)[C@H]2CN(C(=O)OCc3ccccc3)CCN2C(=O)[C@H]2CN(C(=O)OCc3ccccc3)CCN2C1=O` [Example 85, c-[Phenylalanyl-L-isoleucinyl-D-piperazin-2-yl(4-Cbz)-D-piperazin-2-yl(4-Cbz)-D-(N^α -methyl)phenylalanyl-L-prolyl]] (cyclo([dF]I[dPip(4-aza,4-Cbz)][dPip(4-aza,4-Cbz)][dNMeF]P)), the results for the IC50 on uterine OT receptors (setting [1]), at AVP-V1 sites (setting [4]) and at AVP-V2 sites (setting [5]) were 1000 nM, more than 10000 nM and 10000 nM, respectively.
For the compound `CC[C@H](C)[C@@H]1NC(=O)[C@@H](Cc2ccccc2)NC(=O)[C@@H]2CCCN2C(=O)[C@@H](Cc2ccccc2)N(C)C(=O)[C@H](CC(=O)O)NC(=O)[C@H]2CCCCN2C1=O` [Example 116, c-[D-Phenylalanyl-L-isoleucyl-D-pipecolyl-L-aspartyl-N-methyl-D-phenylalanyl-L-prolyl]] (cyclo(D[dNMeF]P[dF]I[dPip])), the 50% inhibitory concentration (IC50) on uterine OT receptors (setting [1]) was 1450 nM; on AVP-V1 sites (setting [4]) it was more than 10000 nM; at AVP-V2 sites (setting [5]), more than 10000 nM.

A word on the IC50: it is the point on the concentration scale where inhibition reaches its midpoint.

For the origin of these results see patent US5225528A, “Cyclic hexapeptide oxytocin antagonists” (priority 1990, dated 1993).
